Results: PubChem BioAssay (NCI)
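Protocol summary: plate cells (96-well), add compound at 5 concentrations, incubate 48 h, interpolate endpoints linearly. GI50: concentration for 50% inhibition of growth. TGI marks complete inhibition of growth.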

How the values were obtained:
Assay in all cases: NCI-60 cell line screen, 48 h
786-0 renal = test system: 786-0 renal
A498 renal = test system: A498 renal
A549 NSCLC = test system: A549 NSCLC
ACHN renal = test system: ACHN renal
BT-549 breast = test system: BT-549 breast
CAKI-1 renal = test system: CAKI-1 renal
CCRF-CEM leukemia = test system: CCRF-CEM leukemia
COLO 205 colon = test system: COLO 205 colon
DU-145 prostate = test system: DU-145 prostate
EKVX NSCLC = test system: EKVX NSCLC
HCC-2998 colon = test system: HCC-2998 colon
HCT-116 colon = test system: HCT-116 colon
HCT-15 colon = test system: HCT-15 colon
HL-60(TB) leukemia = test system: HL-60(TB) leukemia
HOP-62 NSCLC = test system: HOP-62 NSCLC
HOP-92 NSCLC = test system: HOP-92 NSCLC
HS 578T breast = test system: HS 578T breast
HT29 colon = test system: HT29 colon
IGROV1 ovarian = test system: IGROV1 ovarian
KM12 colon = test system: KM12 colon
M14 melanoma = test system: M14 melanoma
MALME-3M melanoma = test system: MALME-3M melanoma
MCF7 breast = test system: MCF7 breast
MDA-MB-231 breast = test system: MDA-MB-231 breast
MDA-MB-435 = test system: MDA-MB-435
MOLT-4 leukemia = test system: MOLT-4 leukemia
NCI-H226 lung = test system: NCI-H226 lung
NCI-H23 lung = test system: NCI-H23 lung
NCI-H460 lung = test system: NCI-H460 lung
NCI-H522 lung = test system: NCI-H522 lung
NCI/ADR-RES ovarian = test system: NCI/ADR-RES ovarian
OVCAR-3 ovarian = test system: OVCAR-3 ovarian
OVCAR-4 ovarian = test system: OVCAR-4 ovarian
OVCAR-5 ovarian = test system: OVCAR-5 ovarian
OVCAR-8 ovarian = test system: OVCAR-8 ovarian
PC-3 prostate = test system: PC-3 prostate
RPMI-8226 leukemia = test system: RPMI-8226 leukemia
RXF 393 renal = test system: RXF 393 renal
SF-268 CNS = test system: SF-268 CNS
SF-295 CNS = test system: SF-295 CNS
SF-539 CNS = test system: SF-539 CNS
SK-MEL-2 melanoma = test system: SK-MEL-2 melanoma
SK-MEL-28 melanoma = test system: SK-MEL-28 melanoma
SK-MEL-5 melanoma = test system: SK-MEL-5 melanoma
SK-OV-3 ovarian = test system: SK-OV-3 ovarian
SN12C renal = test system: SN12C renal
SNB-19 CNS = test system: SNB-19 CNS
SNB-75 CNS = test system: SNB-75 CNS
SR leukemia = test system: SR leukemia
SW-620 colon = test system: SW-620 colon
T-47D breast = test system: T-47D breast
TK-10 renal = test system: TK-10 renal
U251 CNS = test system: U251 CNS
UACC-257 melanoma = test system: UACC-257 melanoma
UACC-62 melanoma = test system: UACC-62 melanoma
UO-31 renal = test system: UO-31 renal

## O=S(=O)(NCCNc1cc(-c2cn(-c3ccccc3)nc2-c2cccc(O)c2)ccn1)c1ccc(F)cc1
786-0 renal
  GI50: 2.49 µM
  TGI: 14.3 µM
A498 renal
  GI50: 2.69 µM
  TGI: 9.26 µM
A549 NSCLC
  GI50: 3.43 µM
  TGI: 12.1 µM
ACHN renal
  GI50: 2.32 µM
  TGI: 7.34 µM
BT-549 breast
  GI50: 2.03 µM
  TGI: 7.68 µM
CAKI-1 renal
  GI50: 3.89 µM
  TGI: > 100 µM
CCRF-CEM leukemia
  GI50: 3.28 µM
  TGI: 17.3 µM
COLO 205 colon
  GI50: 1.91 µM
  TGI: 4.34 µM
DU-145 prostate
  GI50: 3.35 µM
  TGI: 16.8 µM
EKVX NSCLC
  GI50: 2.59 µM
  TGI: 20.3 µM
HCC-2998 colon
  GI50: 1.98 µM
  TGI: 4.19 µM
HCT-116 colon
  GI50: 2.86 µM
  TGI: 10.4 µM
HCT-15 colon
  GI50: 1.8 µM
  TGI: 5.75 µM
HL-60(TB) leukemia
  GI50: 2.43 µM
  TGI: 6.22 µM
HOP-62 NSCLC
  GI50: 1.98 µM
  TGI: 5.44 µM
HOP-92 NSCLC
  GI50: 2.03 µM
  TGI: 8.48 µM
HS 578T breast
  GI50: 2.94 µM
  TGI: > 100 µM
HT29 colon
  GI50: 1.99 µM
  TGI: 4.79 µM
IGROV1 ovarian
  GI50: 3.21 µM
  TGI: 19.8 µM
KM12 colon
  GI50: 2.34 µM
  TGI: 8.26 µM
M14 melanoma
  GI50: 2.27 µM
  TGI: 6.41 µM
MALME-3M melanoma
  GI50: 1.73 µM
  TGI: 3.88 µM
MCF7 breast
  GI50: 2.19 µM
  TGI: 6.66 µM
MDA-MB-231 breast
  GI50: 1.88 µM
  TGI: 4.7 µM
MDA-MB-435
  GI50: 2.3 µM
  TGI: 7.2 µM
MOLT-4 leukemia
  GI50: 2.23 µM
  TGI: 5.46 µM
NCI-H226 lung
  GI50: 3.06 µM
  TGI: 13.7 µM
NCI-H23 lung
  GI50: 2.66 µM
  TGI: 10.8 µM
NCI-H460 lung
  GI50: 3.12 µM
  TGI: 9.12 µM
NCI-H522 lung
  GI50: 1.49 µM
  TGI: 3.79 µM
NCI/ADR-RES ovarian
  GI50: 2.69 µM
OVCAR-3 ovarian
  GI50: 1.98 µM
  TGI: 4.59 µM
OVCAR-4 ovarian
  GI50: 3.05 µM
  TGI: > 100 µM
OVCAR-5 ovarian
  GI50: 1.93 µM
  TGI: 5.69 µM
OVCAR-8 ovarian
  GI50: 3.07 µM
  TGI: 14.1 µM
PC-3 prostate
  GI50: 2.29 µM
  TGI: 10.3 µM
RPMI-8226 leukemia
  GI50: 2.23 µM
  TGI: 6.12 µM
RXF 393 renal
  GI50: 2.09 µM
  TGI: 7.54 µM
SF-268 CNS
  GI50: 2.42 µM
  TGI: 8.93 µM
SF-295 CNS
  GI50: 1.75 µM
  TGI: 3.9 µM
SF-539 CNS
  GI50: 1.71 µM
  TGI: 3.95 µM
SK-MEL-2 melanoma
  GI50: 1.92 µM
  TGI: 4.32 µM
SK-MEL-28 melanoma
  GI50: 2.03 µM
  TGI: 5.39 µM
SK-MEL-5 melanoma
  GI50: 1.73 µM
  TGI: 3.22 µM
SK-OV-3 ovarian
  GI50: 2.85 µM
  TGI: 12.3 µM
SN12C renal
  GI50: 3.69 µM
  TGI: 35.1 µM
SNB-19 CNS
  GI50: 3.72 µM
  TGI: 31.7 µM
SNB-75 CNS
  GI50: 2.83 µM
  TGI: 16.5 µM
SR leukemia
  GI50: 1.6 µM
  TGI: 4.88 µM
SW-620 colon
  GI50: 3.52 µM
  TGI: 13.6 µM
T-47D breast
  GI50: 2.01 µM
  TGI: 6.86 µM
TK-10 renal
  GI50: 3.58 µM
  TGI: 9.84 µM
U251 CNS
  GI50: 2.62 µM
  TGI: 7.85 µM
UACC-257 melanoma
  GI50: 2.85 µM
  TGI: 7.14 µM
UACC-62 melanoma
  GI50: 1.99 µM
  TGI: 4.73 µM
UO-31 renal
  GI50: 2.31 µM
  TGI: 7.88 µM
